Here are results for four molecules from US6344217B1, “Putamen OVI” (priority 1994, dated 2002).

For data set [1], the system named is Male Wistar rats. As to the kind of experiment: Clinical-chemical serum parameters after 7-day treatment of rats. Format: in vivo, rat. As to the method:
(§1) Male Wistar rats having an average body weight of 322.5 g were kept under conventional conditions at a room temperature of 21±1° C., a relative atmospheric humidity of about 60% and a 12 hour day/night cycle. Prior to the start of the experiment, they where subjected to an acclimatization to those keeping conditions for 12 days.
(§2) Feeding was performed with the pelletized standard diet Altromin C 1000, Misch. Nr. 100 (Altrogge). The animals were given tap water ad libidum as drinking water.
(§3) 1. Coated tablet core granules, micronized with putamen ovi; 1 coated tablet core aar® os with 640 mg contains 440 mg of putamen ovi, micronized, corresponding to 160 mg of calcium; Dosage form: Putamen ovi, coated tablet core granules, 146 mg (≡100 mg of putamen ovi, micronized≈36.5 mg of Ca) is suspended in 2 ml of dist. water (POS), 0.5 ml (POS)≡9.125 mg of Ca (PO)/[…]
(§4) The suspension were freshly prepared immediately before the administration and homogeneously administered. The control animals were given physiological saline in an equivalent volume.
Parameters such as enzymes, glucose, lipids, electrolytes, creatinin, urea and protein are detected selectively, method-oriented, photometrically or ion-selectively using the analyzer Cobas Mira. The supplemental report furnishes analysis-specific data of quality control and statistics.
The following clinical-chemical metabolic measurement values were analyzed in a combined method-specific manner: Bilirubin, creatinin, urea, glutamate oxalacetate transaminase (GOT), glutamate pyruvate transaminase (GPT), gamma-glutamyl transferase (GGT), glucose, cholesterol, triglycerides, calcium, sodium, potassium, chloride and total protein.
(§5) Measurements were performed with the following test substances (corresponding values for the control=100%): […]

Data set [2] has as its system Male Wistar rats. The experiment in a line: Haematology (WBC, RBC) after 7-day intragastral treatment of rats. It is filed as in vivo, rat. As to the method:
as §1, §2, §3, §4
erythrocytes (RBC), leucocytes (WBC), platelets (PLT), hemoglobin (HGB), hematocrit (HCT)
By means of the fully automated hematology analyzer Sysmex K-1000, the following were determined: WBC, RBC, PLT as well as HGB and HCT, further MCV, MCH and MCHC. The main unit of this device essentially consists of a hydraulic (HS) and an electronic (ES) system. The HS is used for sucking, pipetting, diluting, mixing and lysing. The ES analyzes and converts the signals from the HS and submits the results to the printer. With the aid of microprocessors, the ES also monitors the test runs, the testing station, and performs a quality control.
The hematocrit value corresponds to the percent volume fraction of erythrocytes in blood. In addition to the number of erythrocytes and the hematocrit value, the level of hemoglobin, the chromoprotein contained in the erythrocytes, is an important criterion for the diagnostics of anemias. Classification is performed by the erythrocyte indices. Erythrocyte size and hemoglobin content are characterized by the erythrocyte volume (MCV=mean corpuscular volume), the hemoglobin content of the erythrocytes (MCH=mean corpuscular hemoglobin), and the mean corpuscular hemoglobin concentration (MCHC). The erythrocyte distribution width (RDW=red cell distribution width) is a measure of anisocytosis.
as §5

Data set [3] deals with Male Wistar rats. The experiment in a line: Leucocyte/lymphocyte differentiation by flow cytometry after 7-day treatment of rats. It is filed as in vivo, rat. As to the method:
as §1, §2, §3, §4
The leucocyte differentiation was performed using the flow cytometer FACScan following appropriate lysing of the whole blood sample (scattered light measurement).
The lymphocyte differentiation was performed after specific monoclonal incubation by means of fluorescence-activated cell sorting (fluorescence measurement).
On the 7th day of treatment, there were analyzed quantitatively:
For determining the phenotypes of the lymphocytes, they were incubated with the following antibodies of Pharmingen, San Diego (USA), to which a fluorochrome was coupled:
5 μl each of the antibodies is incubated with 50 μl of Na-EDTA-blood at room temperature in the dark for 20 min. The suspension is agitated with 2 ml of Lyses Reagenz of Becton-Dickinson and incubated for 10 min as described. This followed by centrifuging at 400×g for 6 min, and the supernatant is poured off. The pellet is washed with 3 ml of Cell Wash and centrifuged at 400×g for 6 min. The pellet is taken up in 100 μl of Cell Wash. The suspension is analyzed by means of the flow cytometer.
as §5

Data set [4] deals with Male Wistar rats. The experiment in a line: Histological examination of organs after 7-day treatment of rats. Particulars: 7 days. As to the method: as §1, §2, §3, §4
Data set [5] relates to healthy females in post-menopause. Particulars: two-year study, 361 healthy females in post-menopause; cited from earlier work.
Setting [6] is: change vs control (=100%), rats, 7 days intragastral, serum.
The mark [7] stands for this setting: change vs control (=100%), rats, intragastral once daily for 7 days, peripheral blood.
Setting [8] is: change vs control (=100%), rats, 7th day of treatment, peripheral blood.

SMILES strings stand for the structures. Several values for one entry are separate records, joined by “and”; a condition that tells them apart may be missing. Equal entries are not always repeated. Entries after “also recorded” stand apart in the source; their conditions may differ.

As for `NS(=O)(=O)c1cc(C(=O)O)c(NCc2ccco2)cc1Cl` [FUR, Furosemide], in the data set with Male Wistar rats [1] (setting [6]), the “AP (alkaline phosphatase)” value is −13.4%, the Ca was −28.9%, the GLDH is −31.3% and the GOT entry is recorded as “unch”. In addition, in the data set on Male Wistar rats [1] (setting [6]), the GPT was −24.4%, the bilirubin entry is listed as “+20.7%”, the cholesterol is listed as −24.9% and the creatinin is given as −49.7%. Besides, in the data set with Male Wistar rats [1] (setting [6]), the glucose entry is reported as “unch”, the triglycerides was −29.6% and the urea was −7.3%. In the data set with Male Wistar rats [2] (setting [7]), the “RBC (number of erythrocytes)” value is recorded as “unchanged” and the “WBC (number of leucocytes)” value is “+61.0%”. Moreover, in the data set with Male Wistar rats [3] (setting [8]), the T lymphocytes entry is “+46.2%”, the helper lymphocytes entry is “+41.5%”, the lymphocytes entry is reported as “+60.5%” and the supp. lymphocytes entry is given as “unch”.

As to `[F-].[Na+]` [NF, Sodium fluoride], in the data set on Male Wistar rats [1] (setting [6]), the “AP (alkaline phosphatase)” value was “unch”, the Ca entry was “unch”, the GLDH is reported as −17.3% and the GOT is −9.8%. Further, in the data set with Male Wistar rats [1] (setting [6]), the GPT was −9.7%, the “SP (acid phosphatase)” value is on record as −7.5%, the bilirubin result is reported as “+13.8%” and the cholesterol is given as −8.7%. Moreover, in the data set with Male Wistar rats [1] (setting [6]), the creatinin is on record as −20.7%, the glucose entry is given as “+15.7%”, the triglycerides is −4.2% and the urea is given as −13.2%. Moreover, the “WBC (number of leucocytes)” value with Male Wistar rats [2] (setting [7]) was “+13.8%”. In the data set with Male Wistar rats [3] (setting [8]), the T lymphocytes entry was “did not induce an effect; also recorded: unch”, the helper lymphocytes result was “did not induce an effect; also recorded: unch”, the lymphocytes entry is “unch” and the supp. lymphocytes entry was “did not induce an effect; also recorded: unch”.

Take `O=P1(N(CCCl)CCCl)NCCCO1` (stereo not drawn) [CyS, Cyclophosphamide]: in the data set on Male Wistar rats [1] (setting [6]), the “AP (alkaline phosphatase)” value is −14.7%, the Ca is −23.2%, the GLDH was −21.3% and the GOT is −24.6%. In the data set on Male Wistar rats [1] (setting [6]), the GPT is reported as −30.8%, the “SP (acid phosphatase)” value is reported as −9.1%, the bilirubin result was “+58.6%” and the cholesterol is −25%. Moreover, in the data set with Male Wistar rats [1] (setting [6]), the creatinin is reported as −28.3%, the glucose result is reported as “+5.2%”, the triglycerides entry was “+10.1%” and the urea entry is listed as “unch”. Further, in the data set on Male Wistar rats [2] (setting [7]), the “WBC (number of leucocytes)” value is reported as −51.3%. In the data set on Male Wistar rats [3] (setting [8]), the B lymphocytes was −79.9%; the T lymphocytes was −51% and −51.9%; the helper lymphocytes is given as −45.9%; the lymphocytes is −55.0%. For the same molecule, in the data set on Male Wistar rats [3] (setting [8]), the “polymorphs (polymorphonuclear granulocytes)” value was −28.1% and the supp. lymphocytes was −30.9%. Besides, the “erythrocytes in thorn-apple form (acanthocytes) in bone marrow sinuses” value in the data set with Male Wistar rats [4] is “encountered”.

For `O=C([O-])[O-].[Ca+2]` [CC, Calcium carbonate], in the data set on Male Wistar rats [1] (setting [6]), the Ca entry is on record as “unch”. Besides, in the data set with Male Wistar rats [1] (rat, in vivo), the “AP (alkaline phosphatase)” value was “+5.5%”, the GLDH entry is “+6.7%”, the GOT is −7.1% and the GPT result is on record as “unch”. Besides, in the data set with Male Wistar rats [1] (rat, in vivo), the “SP (acid phosphatase)” value was “unch”, the bilirubin is given as −17.3%, the cholesterol result was “unch” and the creatinin was −19.7%. In the data set with Male Wistar rats [1] (rat, in vivo), the glucose entry is recorded as “+6.7%”, the triglycerides is recorded as −7.8% and the urea is recorded as −13.9%. For the same molecule, the “RBC (number of erythrocytes)” value in the data set with Male Wistar rats [2] (rat, in vivo) is “not increased”. In addition, in the data set on Male Wistar rats [3] (rat, in vivo), the B lymphocytes entry was “+7.6%”, the T lymphocytes entry was “unch”, the chemoprotective effect entry is recorded as “neither showed positive effects in clinically healthy rats nor chemoprotective effects” and the helper lymphocytes was −4.3%. Further, in the data set on Male Wistar rats [3] (rat, in vivo), the lymphocytes entry is on record as “unch”, the “polymorphs (polymorphonuclear granulocytes)” value is on record as “unch” and the supp. lymphocytes result is “+12.4%”. In addition, the “inhibitory influence on bone mass losses” value in data set [5] is recorded as “only a slightly pronounced inhibitory influence”.
